pIC50, pKi: −log10 of the molar value.
What was measured:
[1] = target: T1, Amine oxidase [flavin-containing] B (Homo sapiens, UniProt P27338); experiment: Inhibition of human MAO-B at 10^-4 to 10^-3 M using tyramine hydrochloride as substrate after 30 mins by Amplex Red reagent based horseradish peroxidase enzyme-coupled fluorescence assay relative to control; conditions: 0.5 h
T1 sequence (P27338 whole entry): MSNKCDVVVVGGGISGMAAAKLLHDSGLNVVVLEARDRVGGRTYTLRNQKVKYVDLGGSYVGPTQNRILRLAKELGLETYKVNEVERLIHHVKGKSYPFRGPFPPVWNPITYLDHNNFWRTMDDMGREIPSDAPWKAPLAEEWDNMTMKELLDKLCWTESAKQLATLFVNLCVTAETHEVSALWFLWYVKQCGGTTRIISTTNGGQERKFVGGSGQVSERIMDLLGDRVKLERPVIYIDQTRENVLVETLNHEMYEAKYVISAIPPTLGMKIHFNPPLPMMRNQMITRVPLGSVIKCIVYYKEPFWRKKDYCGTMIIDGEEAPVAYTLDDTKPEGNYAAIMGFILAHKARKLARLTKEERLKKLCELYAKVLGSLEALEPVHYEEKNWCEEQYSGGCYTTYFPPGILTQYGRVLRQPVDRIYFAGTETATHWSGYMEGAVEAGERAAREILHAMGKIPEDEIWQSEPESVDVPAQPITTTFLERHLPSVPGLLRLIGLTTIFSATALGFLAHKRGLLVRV

[2] = target: T2, Amine oxidase [flavin-containing] A (Homo sapiens, UniProt P21397); experiment: Inhibition of human MAO-A at 10^-4 to 10^-3 M using tyramine hydrochloride as substrate after 30 mins by Amplex Red reagent based horseradish peroxidase enzyme-coupled fluorescence assay relative to control; conditions: 0.5 h
T2 sequence (P21397 whole entry): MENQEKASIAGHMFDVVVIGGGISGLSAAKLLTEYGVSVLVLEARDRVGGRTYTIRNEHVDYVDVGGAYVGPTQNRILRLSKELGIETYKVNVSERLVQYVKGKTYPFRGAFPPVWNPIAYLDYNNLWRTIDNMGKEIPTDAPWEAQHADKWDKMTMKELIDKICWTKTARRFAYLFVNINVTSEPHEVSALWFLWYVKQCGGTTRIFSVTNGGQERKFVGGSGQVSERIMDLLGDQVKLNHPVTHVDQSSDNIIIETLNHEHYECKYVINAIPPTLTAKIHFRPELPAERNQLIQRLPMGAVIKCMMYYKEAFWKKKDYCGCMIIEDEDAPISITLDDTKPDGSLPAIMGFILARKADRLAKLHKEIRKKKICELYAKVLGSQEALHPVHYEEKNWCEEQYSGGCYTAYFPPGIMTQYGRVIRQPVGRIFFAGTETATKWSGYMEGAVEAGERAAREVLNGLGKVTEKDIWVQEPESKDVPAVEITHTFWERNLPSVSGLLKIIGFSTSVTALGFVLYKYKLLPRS

[3] = target: T2, Amine oxidase [flavin-containing] A; experiment: Inhibition of human MAO-A using tyramine hydrochloride as substrate after 30 mins by Amplex Red reagent based horseradish peroxidase enzyme-coupled fluorescence assay
[4] = target: T1, Amine oxidase [flavin-containing] B; experiment: Inhibition of human MAO-B using tyramine hydrochloride as substrate after 30 mins by Amplex Red reagent based horseradish peroxidase enzyme-coupled fluorescence assay
[5] = organism: Homo sapiens; experiment: Selectivity index, ratio of IC50 for human MAO-B to IC50 for human MAO-A
[6] = target: T2, Amine oxidase [flavin-containing] A; experiment: Reversible-competitive inhibition of human MAO-A using varying levels of tyramine as substrate after 30 mins by Lineweaver-Burk plot
[7] = system: NIH3T3; experiment: Cytotoxicity against mouse NIH/3T3 cells by MTT assay; type: cell-based
[8] = system: Salmonella typhimurium; experiment: Genotoxicity in Salmonella typhimurium TA98 assessed as increase in revertant colonies at 0.156 mg/ml in presence of Sprague-Dawley rat liver S9 fraction by Ames test relative to basal level; type: toxicity, organism-based; conditions: salmonella enterica subsp. enterica serovar typhimurium
[9] = system: Salmonella typhimurium; experiment: Genotoxicity in Salmonella typhimurium TA98 assessed as increase in revertant colonies at 0.3125 mg/ml in presence of Sprague-Dawley rat liver S9 fraction by Ames test relative to basal level; type: toxicity, organism-based; conditions: salmonella enterica subsp. enterica serovar typhimurium
[10] = system: Salmonella typhimurium; experiment: Genotoxicity in Salmonella typhimurium TA98 assessed as increase in revertant colonies at 0.625 mg/ml in presence of Sprague-Dawley rat liver S9 fraction by Ames test relative to basal level; type: toxicity, organism-based; conditions: salmonella enterica subsp. enterica serovar typhimurium
[11] = system: Salmonella typhimurium; experiment: Genotoxicity in Salmonella typhimurium TA98 assessed as increase in revertant colonies at 1.25 mg/ml in presence of Sprague-Dawley rat liver S9 fraction by Ames test relative to basal level; type: toxicity, organism-based; conditions: salmonella enterica subsp. enterica serovar typhimurium
[12] = system: Salmonella typhimurium; experiment: Genotoxicity in Salmonella typhimurium TA98 assessed as increase in revertant colonies at 2.5 mg/ml in presence of Sprague-Dawley rat liver S9 fraction by Ames test relative to basal level; type: toxicity, organism-based; conditions: salmonella enterica subsp. enterica serovar typhimurium
[13] = system: Salmonella typhimurium; experiment: Genotoxicity in Salmonella typhimurium TA98 assessed as increase in revertant colonies at 5 mg/ml in presence of Sprague-Dawley rat liver S9 fraction by Ames test relative to basal level; type: toxicity, organism-based; conditions: salmonella enterica subsp. enterica serovar typhimurium
[14] = system: Salmonella typhimurium; experiment: Genotoxicity in Salmonella typhimurium TA98 assessed as increase in revertant colonies at 0.156 mg/ml in absence of Sprague-Dawley rat liver S9 fraction by Ames test relative to basal level; type: toxicity, organism-based; conditions: salmonella enterica subsp. enterica serovar typhimurium
[15] = system: Salmonella typhimurium; experiment: Genotoxicity in Salmonella typhimurium TA98 assessed as increase in revertant colonies at 0.3125 mg/ml in absence of Sprague-Dawley rat liver S9 fraction by Ames test relative to basal level; type: toxicity, organism-based; conditions: salmonella enterica subsp. enterica serovar typhimurium
[16] = system: Salmonella typhimurium; experiment: Genotoxicity in Salmonella typhimurium TA98 assessed as increase in revertant colonies at 0.625 mg/ml in absence of Sprague-Dawley rat liver S9 fraction by Ames test relative to basal level; type: toxicity, organism-based; conditions: salmonella enterica subsp. enterica serovar typhimurium
[17] = system: Salmonella typhimurium; experiment: Genotoxicity in Salmonella typhimurium TA98 assessed as increase in revertant colonies at 1.25 mg/ml in absence of Sprague-Dawley rat liver S9 fraction by Ames test relative to basal level; type: toxicity, organism-based; conditions: salmonella enterica subsp. enterica serovar typhimurium
[18] = system: Salmonella typhimurium; experiment: Genotoxicity in Salmonella typhimurium TA98 assessed as increase in revertant colonies at 2.5 mg/ml in absence of Sprague-Dawley rat liver S9 fraction by Ames test relative to basal level; type: toxicity, organism-based; conditions: salmonella enterica subsp. enterica serovar typhimurium
[19] = system: Salmonella typhimurium; experiment: Genotoxicity in Salmonella typhimurium TA98 assessed as increase in revertant colonies at 5 mg/ml in absence of Sprague-Dawley rat liver S9 fraction by Ames test relative to basal level; type: toxicity, organism-based; conditions: salmonella enterica subsp. enterica serovar typhimurium
[20] = system: Salmonella typhimurium; experiment: Genotoxicity in Salmonella typhimurium TA100 assessed as increase in revertant colonies at 0.156 mg/ml in presence of Sprague-Dawley rat liver S9 fraction by Ames test relative to basal level; type: toxicity, organism-based; conditions: salmonella enterica subsp. enterica serovar typhimurium
[21] = system: Salmonella typhimurium; experiment: Genotoxicity in Salmonella typhimurium TA100 assessed as increase in revertant colonies at 0.3125 mg/ml in presence of Sprague-Dawley rat liver S9 fraction by Ames test relative to basal level; type: toxicity, organism-based; conditions: salmonella enterica subsp. enterica serovar typhimurium
[22] = system: Salmonella typhimurium; experiment: Genotoxicity in Salmonella typhimurium TA100 assessed as increase in revertant colonies at 0.625 mg/ml in presence of Sprague-Dawley rat liver S9 fraction by Ames test relative to basal level; type: toxicity, organism-based; conditions: salmonella enterica subsp. enterica serovar typhimurium
[23] = system: Salmonella typhimurium; experiment: Genotoxicity in Salmonella typhimurium TA100 assessed as increase in revertant colonies at 1.25 mg/ml in presence of Sprague-Dawley rat liver S9 fraction by Ames test relative to basal level; type: toxicity, organism-based; conditions: salmonella enterica subsp. enterica serovar typhimurium
[24] = system: Salmonella typhimurium; experiment: Genotoxicity in Salmonella typhimurium TA100 assessed as increase in revertant colonies at 2.5 mg/ml in presence of Sprague-Dawley rat liver S9 fraction by Ames test relative to basal level; type: toxicity, organism-based; conditions: salmonella enterica subsp. enterica serovar typhimurium
[25] = system: Salmonella typhimurium; experiment: Genotoxicity in Salmonella typhimurium TA100 assessed as increase in revertant colonies at 5 mg/ml in presence of Sprague-Dawley rat liver S9 fraction by Ames test relative to basal level; type: toxicity, organism-based; conditions: salmonella enterica subsp. enterica serovar typhimurium
[26] = system: Salmonella typhimurium; experiment: Genotoxicity in Salmonella typhimurium TA100 assessed as increase in revertant colonies at 0.156 mg/ml in absence of Sprague-Dawley rat liver S9 fraction by Ames test relative to basal level; type: toxicity, organism-based; conditions: salmonella enterica subsp. enterica serovar typhimurium
[27] = system: Salmonella typhimurium; experiment: Genotoxicity in Salmonella typhimurium TA100 assessed as increase in revertant colonies at 0.3125 mg/ml in absence of Sprague-Dawley rat liver S9 fraction by Ames test relative to basal level; type: toxicity, organism-based; conditions: salmonella enterica subsp. enterica serovar typhimurium
[28] = system: Salmonella typhimurium; experiment: Genotoxicity in Salmonella typhimurium TA100 assessed as increase in revertant colonies at 0.625 mg/ml in absence of Sprague-Dawley rat liver S9 fraction by Ames test relative to basal level; type: toxicity, organism-based; conditions: salmonella enterica subsp. enterica serovar typhimurium
[29] = system: Salmonella typhimurium; experiment: Genotoxicity in Salmonella typhimurium TA100 assessed as increase in revertant colonies at 1.25 mg/ml in absence of Sprague-Dawley rat liver S9 fraction by Ames test relative to basal level; type: toxicity, organism-based; conditions: salmonella enterica subsp. enterica serovar typhimurium
[30] = system: Salmonella typhimurium; experiment: Genotoxicity in Salmonella typhimurium TA100 assessed as increase in revertant colonies at 2.5 mg/ml in absence of Sprague-Dawley rat liver S9 fraction by Ames test relative to basal level; type: toxicity, organism-based; conditions: salmonella enterica subsp. enterica serovar typhimurium
[31] = system: Salmonella typhimurium; experiment: Genotoxicity in Salmonella typhimurium TA100 assessed as increase in revertant colonies at 5 mg/ml in absence of Sprague-Dawley rat liver S9 fraction by Ames test relative to basal level; type: toxicity, organism-based; conditions: salmonella enterica subsp. enterica serovar typhimurium

## Fc1ccc(-c2csc(N/N=C/c3ccc(N4CCOCC4)cc3)n2)cc1
[1]
  inhibition (INH): > 50%
[2]
  inhibition (INH): > 50%
[3]
  pIC50: 7.92
[4]
  pIC50: 4.84
[5]
  Ratio IC50: 1210
[6]
  pKi: 8.18
[7]
  pIC50: < 3.00
[8]
  fold change (FC): 4.38
[9]
  fold change (FC): 6.07
[10]
  fold change (FC): 6.97
[11]
  fold change (FC): 7.86
[12]
  fold change (FC): 7.95
[13]
  fold change (FC): 5.81
[14]
  fold change (FC): 1.66
[15]
  fold change (FC): 2.28
[16]
  fold change (FC): 1.59
[17]
  fold change (FC): 2
[18]
  fold change (FC): 1.45
[19]
  fold change (FC): 1.66
[20]
  fold change (FC): 1.07
[21]
  fold change (FC): 1.01
[22]
  fold change (FC): 1.12
[23]
  fold change (FC): 0.96
[24]
  fold change (FC): 0.96
[25]
  fold change (FC): 1.28
[26]
  fold change (FC): 1.11
[27]
  fold change (FC): 0.56
[28]
  fold change (FC): 1.11
[29]
  fold change (FC): 0.72
[30]
  fold change (FC): 0.83
[31]
  fold change (FC): 1.17

Reference: ChEMBL document CHEMBL4145445, “Design, synthesis and biological assessment of new thiazolylhydrazine derivatives as selective and reversible hMAO-A inhibitors” (Eur J Med Chem, 2018)
